Measured values: ChEMBL document CHEMBL6074685, “Design, synthesis and biological evaluation of novel diaryl-substituted fused nitrogen heterocycles as tubulin polymerization inhibitors to overcome multidrug resistance in vitro and in vivo” (Eur J Med Chem, 2025)
Activity calls are given as the source filed them. No cut-off for these calls is given here.

How the values were obtained:
A549 [1] = test: Antiproliferative activity against human A549 cells assessed as cell growth inhibition incubated for 48 hrs by MTT assay; conditions: A549, 48 h
[2] = Resistance index, ratio of IC50 for human A549/T cells to IC50 for human A549 cells; format: functional
A549/TR [3] = test: Antiproliferative activity against human A549/T cell assessed as cell growth inhibition incubated for 48 hrs by MTT assay; format: functional, cell-based
A549/TR [4] = test: Antiproliferative activity against human A549/T cell assessed as cell growth inhibition in presence of verapamil incubated for 48 hrs by MTT assay; format: functional, cell-based
A549/TR [5] = test: Antitumor activity against human A549/T cell xenografted in BALB/c mouse assessed as reduction in tumor growth at 15 mg/kg, ip administered every 2 days; format: functional, organism-based; conditions: time 2.0 day
A549/TR [6] = test: Inhibition of colony formation in human A549/T cell at 1 uM incubated for 48 hrs by crystal violet staining based analysis; format: functional
[7] = Toxicity in BALB/c mouse implanted with human A549/T cell assessed as change in body weight at 15 mg/kg, ip administered every 2 days; format: organism-based; conditions: in vivo, 48 h, time 2 day
A549 [8] = test: Inhibition of colony formation in human A549 cells at 1 uM incubated for 48 hrs by crystal violet staining based analysis; format: functional, cell-based
Tubulin (Homo sapiens) = Tubulin (Homo sapiens) (UniProt P68371+Q9H4B7+P0DPH7+P68366+Q13509+Q71U36+P04350+Q3ZCM7+P07437+P68363+Q9BQE3+Q6PEY2+Q13885+Q9BVA1+Q9BUF5); test: Disruption of microtubule network in human A549/T cell assessed as disorganization of tubulin cytoskeleton at 1000 nM incubated for 24 hrs by immunofluorescence staining based confocal microscopy analysis
A549/TR [9] = test: Antiproliferative activity against human A549/T cell assessed as cell growth inhibition at 80 nM incubated for 48 hrs by MTT assay; format: functional, cell-based

IC50 (A549 [1]) [µM] | IC50 (A549/TR [3]) [µM] | SMILES | Ratio IC50 [2] | also measured
11 | 16.6 | COc1ccc(-c2cc(-c3ccc(OC)c(N)c3)cc3[nH]cnc23)cc1 | 1.5 | 
 | > 50 | COc1ccc(-c2cncc3[nH]c(=O)n(Cc4cc(OC)c(OC)c(OC)c4)c23)cc1O |  | 
 |  | CCC1=C[C@@H]2CN(C1)Cc1c([nH]c3ccccc13)[C@@](C(=O)OC)(c1cc3c(cc1OC)N(C)[C@H]1[C@@](O)(C(=O)OC)[C@H](OC(C)=O)[C@]4(CC)C=CCN5CC[C@]31[C@@H]54)C2 |  | Activity (A549/TR [4]): Active
0.29 | 0.39 | COc1ccc(-c2cc(-c3cc(OC)c(OC)c(OC)c3)c3nc[nH]c3c2)cn1 | 1.34 | 
 | 22.1 | COc1ccc(-c2cc3[nH]c(=O)[nH]c3c(Oc3cc(OC)c(OC)c(OC)c3)n2)cc1F |  | 
0.059 | 0.24 | COc1ccc(-c2cc(-c3cc(OC)c(OC)c(OC)c3)c3nc[nH]c3c2)cc1O | 4.06 | 
0.78 | 1.51 | COc1ccc(-c2cc(-c3cc(OC)c(OC)c(OC)c3)c3nc[nH]c3c2)cc1 | 1.94 | 
0.47 | 1.58 | COc1ccc(-c2cc(-c3cc(OC)c(OC)c(OC)c3)c3nc[nH]c3c2)cc1CO | 3.36 | 
0.19 | 0.89 | COc1cc(-c2cc(-c3ccc(C)c(O)c3)cc3[nH]cnc23)cc(OC)c1OC | 4.68 | 
> 50 | > 50 | COc1cc(-c2cc(C)cc3[nH]cnc23)cc(OC)c1OC |  | 
23 | 35.5 | COc1ccc(-c2nc3c(c(Nc4cc(OC)c(OC)c(OC)c4)n2)CCC3)cc1F | 1.54 | 
0.002 | > 50 | CC(=O)O[C@H]1C(=O)[C@@]2(C)[C@H]([C@H](OC(=O)c3ccccc3)[C@]3(O)C[C@H](OC(=O)[C@H](O)[C@@H](NC(=O)c4ccccc4)c4ccccc4)C(C)=C1C3(C)C)[C@]1(OC(C)=O)CO[C@@H]1C[C@@H]2O [PACLITAXEL] | >25000 | Activity (A549/TR [5]): inactive; inhibition (A549/TR [6]): inactive; Activity [7]: Non-toxic; Activity (A549/TR [4]): Active; inhibition (A549 [8]): Active; Activity (Tubulin (Homo sapiens)): Active
 | > 50 | COc1ccc(-n2c(=O)[nH]c3cnc(-c4cc(OC)c(OC)c(OC)c4)cc32)cc1O |  | 
0.41 | 0.91 | COc1cc(-c2cc(-c3ccc(Cl)c(N)c3)cc3[nH]cnc23)cc(OC)c1OC | 2.21 | 
0.29 | 0.47 | COc1ccc(-c2cc(-c3cc(OC)c(OC)c(OC)c3)c3[nH]c(=O)[nH]c3c2)cc1O | 1.62 | 
0.021 | 4.35 | CC[C@]1(O)C[C@H]2CN(CCc3c([nH]c4ccccc34)[C@@](C(=O)OC)(c3cc4c(cc3OC)N(C=O)[C@H]3[C@@](O)(C(=O)OC)[C@H](OC(C)=O)[C@]5(CC)C=CCN6CC[C@]43[C@@H]65)C2)C1 [VINCRISTINE] | 207 | 
0.68 | 0.97 | COc1cc(-c2cc(-c3ccc(C)cc3)cc3[nH]cnc23)cc(OC)c1OC | 1.42 | 
28.9 | 37.1 | COc1cc(-c2cc(Br)cc3[nH]cnc23)cc(OC)c1OC | 1.28 | 
0.14 | 0.35 | COc1ccc(-c2cc(-c3ccccc3OC)c3nc[nH]c3c2)cc1N | 2.5 | 
0.24 | 0.5 | COc1cc(-c2cc(-c3ccc(C)c(N)c3)cc3[nH]cnc23)cc(OC)c1OC | 2.08 | 
 |  | COc1ccc(CCN(C)CCCC(C#N)(c2ccc(OC)c(OC)c2)C(C)C)cc1OC (centres undefined) |  | Activity (A549/TR [9]): Active; Activity (A549/TR [3]): inactive
0.001 | 7.84 | CC(=O)O[C@@]12CO[C@@H]1C[C@H](O)[C@@]1(C)C(=O)[C@H](O)C3=C(C)[C@@H](OC(=O)[C@H](O)[C@@H](NC(=O)OC(C)(C)C)c4ccccc4)C[C@@](O)([C@@H](OC(=O)c4ccccc4)[C@H]21)C3(C)C [DOCETAXEL ANHYDROUS] | 7840 | Activity (A549/TR [4]): Active
 | > 50 | COc1ccc(-c2cncc3[nH]c(=O)n(-c4cc(OC)c(OC)c(OC)c4)c23)cc1O |  | 
> 50 | > 50 | COc1cc(-c2cc(Cl)cc3[nH]cnc23)cc(OC)c1OC |  | 
1.21 | 3.91 | COc1ccc(-c2nc(Nc3cc(OC)c(OC)c(OC)c3)c3ncn(C)c3n2)cc1F | 3.23 | 
